From ChEMBL document CHEMBL3988442, “University of Dundee, Small-Polar-MMV Screening Library” (2021)

Tests used:
[1] = microbe, parasite or virus in culture; conditions: Mycobacterium tuberculosis, 72 h, read-out: pIC50 (converted)
[2] = microbe, parasite or virus in culture; conditions: Mycobacterium tuberculosis, 96 h, read-out: pIC50 (converted)

| SMILES | IC50 [1] | IC50 [2] |
| --- | --- | --- |
| Cc1ccc2[nH]c(C(=O)N3CCN(C)CC3)cc2c1 | 384 µM | 316 µM |
| O=C(CCCc1ccccc1)NCc1ccccn1 | 168 µM | 234 µM |
| CCCn1nnc(NC(=O)COc2ccc(Cl)cc2)n1 | 237 µM | 272 µM |
| O=C(c1cnsn1)N1CCN(c2ccccn2)CC1 | 84.6 µM | 51.4 µM |
| CCCNC(=O)c1ccc2snnc2c1 | 153 µM | 169 µM |
| Cc1c(C(=O)NC2=NCCS2)oc2ccccc12 | 279 µM | 247 µM |
| COc1cccc(CNc2ccccn2)c1O | > 501 µM | > 501 µM |
| Cc1cc(N2CCNCC2)nc2ccccc12 | 140 µM | 93.7 µM |
| O=C(CN1CCNCC1)NCCSc1ccc(Cl)cc1 | 177 µM | 110 µM |
| CN(C)CCC(=O)c1ccc(F)cc1 | 92.2 µM | 177 µM |
| CCOc1ccccc1NC(=O)CSc1c[nH]nn1 | > 501 µM | 195 µM |
| O=C1CCCN1CCCNS(=O)(=O)c1ccc(Br)s1 | > 501 µM | 6.97 µM |
| CCOc1ccc(Cl)cc1CNCCNCC(C)O (configuration not stated) | 254 µM | 30.7 µM |
| Cn1nnnc1NCc1cccc(Cl)c1Cl | > 501 µM | > 501 µM |
| COc1ccc(C(=O)CCN(C)C)cc1 | 114 µM | 294 µM |
| c1ccc(CNc2cc(-n3cccn3)ncn2)cc1 | 11.2 µM | > 501 µM |
| COCC(=O)NCc1noc(-c2cccc(C)c2)n1 | 265 µM | 160 µM |
| CC1CCCN(c2cc(CNS(C)(=O)=O)ccn2)C1 (configuration not stated) | 449 µM | 277 µM |
| NC(=O)c1ccc(-c2nc(C3CCCC3)no2)o1 | 338 µM | 228 µM |
| CC(C)CS(=O)(=O)NCc1ccc2c(c1)OCO2 | 183 µM | > 501 µM |
| COc1ccc(C(=O)Nc2nonc2NC(C)=O)cc1 | > 501 µM | 96.4 µM |
| COCCNC(=O)c1cc(-c2ccccc2F)no1 | 195 µM | 127 µM |
| CCc1ccc2c(c1)[C@@H](N)CCO2 | > 501 µM | > 501 µM |

| SMILES | IC50 [1] | IC50 [2] |
| --- | --- | --- |
| Cn1nc(CCN)c2ccccc21 | 57.8 µM | 197 µM |
| CCCNC(=O)c1cc(C(C)C)on1 | 9.31 µM | 44.3 µM |
| CCOCCC(=O)N1CCN(c2ccc(F)cc2)CC1 | 11.3 µM | 129 µM |
| Cc1ccc(C(C)C)c(OCC(O)CNCCO)c1 (configuration not stated) | 158 µM | 127 µM |
| O=C(c1cccc2cc[nH]c12)N1CCSCC1 | > 501 µM | > 501 µM |
| O=C1CCC2(CNC(=O)C3CC3)CCCC=C2N1 (configuration not stated) | > 501 µM | > 501 µM |
| Nc1cc(C2CCN(C(=O)Cc3ccsc3)CC2)no1 | 264 µM | > 501 µM |
| CC(C)Oc1ccc(C(CN)N(C)C)cc1 (configuration not stated) | 133 µM | 225 µM |
| COc1ncccc1CN(C)S(=O)(=O)c1cccs1 | 159 µM | 286 µM |
| Cc1cncc(NS(=O)(=O)CCc2ccccc2)c1 | 314 µM | > 501 µM |
| O=C(CSc1ncnn1-c1ccccc1)N1CCCC1 | 200 µM | 101 µM |
| CN1CCN(C(=O)Cn2ccc3ccc(Br)cc32)CC1 | 132 µM | 173 µM |
| CN(CC1CCOCC1)C(=O)NCc1ccco1 | 95.8 µM | 125 µM |
| Clc1ccc(-c2noc(CN3CCCNCC3)n2)cc1 | 213 µM | 216 µM |
| CCOC(=O)c1ccccc1N1C(=O)C=CC1=O | 60.4 µM | 83.7 µM |
| CC(CN)CNC(=O)c1ccc(C(F)(F)F)cc1 (configuration not stated) | > 501 µM | > 501 µM |
| O=C(NCC1CC1)c1noc(-c2ccccc2F)n1 | 16.4 µM | 99.7 µM |
| O=C(Cn1ccc2ccccc21)N1CCCC1 | 60 µM | 162 µM |
| CCOc1ccc(CSc2nnc[nH]2)cc1 | 218 µM | 198 µM |
| FC(F)(F)c1ccc(OC2CCNCC2)nc1 | 189 µM | 230 µM |
| Cc1ccccc1-c1[nH][nH]c(=O)c1CCN | 230 µM | > 501 µM |
| O=C(CN1CCN(c2ccccc2)CC1)N1CCCC1 | > 501 µM | > 501 µM |
| O=C(c1cccc(-n2cccn2)n1)N1CCCC1 | 59.6 µM | 163 µM |

| SMILES | IC50 [1] | IC50 [2] |
| --- | --- | --- |
| Ic1nnnn1-c1ccccc1 | 147 µM | 108 µM |
| Fc1cccc(-c2noc(C3CCCN3)n2)c1 (configuration not stated) | 271 µM | 286 µM |
| CN1CCCN(C(=O)c2ccco2)c2ccccc21 | 119 µM | 191 µM |
| COCCc1noc(C2CNC2)n1 | 247 µM | 250 µM |
| CC(C)(C)C(=O)CCN1CCCCC1 | 204 µM | 290 µM |
| O=C(CSc1cnn[nH]1)Nc1ccc(Cl)cn1 | 99.4 µM | > 501 µM |
| CCCn1nnnc1NCc1ccsc1 | 171 µM | 132 µM |
| CCCn1nnnc1NCc1ccc(C)s1 | 64.7 µM | 51.8 µM |
| CN(Cc1cccn1C)C(=O)c1ccccc1F | 219 µM | 262 µM |
| OCCNCCNCc1ccc(-c2ccccc2Cl)o1 | 136 µM | 34.4 µM |
| CCOc1ccc(-c2cc(N)[nH]n2)cc1 | 232 µM | > 501 µM |
| COc1ncccc1CN(C)C(=O)c1ccccc1F | > 501 µM | > 501 µM |
| CN1CCN(c2ccnc(SCC(N)=O)n2)CC1 | 289 µM | > 501 µM |
| Clc1cccc2nc(N3CCNCC3)oc12 | 144 µM | 349 µM |
| OCCNCCNCc1cccc(Cl)c1Cl | 199 µM | 33.1 µM |
| Cc1cc(C)cc(OCC(=O)N2CCOCC2)c1 | 155 µM | > 501 µM |
| O=C(NCCOCc1ccccc1)c1ccco1 | 249 µM | 245 µM |
| CN1CCN(C(=O)c2cc(-c3cccs3)on2)CC1 | 171 µM | 107 µM |
| CC(CNCC(F)(F)CO)c1ccccc1 (configuration not stated) | > 501 µM | > 501 µM |
| O=C(CSCCO)Nc1ncc(-c2ccccc2)s1 | 174 µM | 272 µM |
| OCC(O)CSCc1nc(-c2ccc(Cl)cc2)no1 (configuration not stated) | 385 µM | 260 µM |
| COCCNC(=O)c1cc(-c2cccc(O)c2)on1 | 231 µM | 157 µM |
| CC(C)CN1C(=O)C(N)c2ccccc21 (configuration not stated) | > 501 µM | > 501 µM |

| SMILES | IC50 [1] | IC50 [2] |
| --- | --- | --- |
| COc1c(C(=O)N2CCOCC2)sc2ccc(F)cc12 | 305 µM | 284 µM |
| NCC(=O)N1CCCC(CCc2ccccc2F)C1 (configuration not stated) | 271 µM | 256 µM |
| CCc1ccc(OCn2cc(N)cn2)cc1 | 292 µM | 134 µM |
| COc1ccc2c(c1)CN(C(=O)C1CCCOC1)CC2 (configuration not stated) | > 501 µM | > 501 µM |
| O=C(CCn1cc(Br)cn1)NCc1cccs1 | 102 µM | 109 µM |
| NCCN1CCN(c2cccc(C(F)(F)F)c2)CC1 | 356 µM | 260 µM |
| CCN1CC(c2nc3ccccc3[nH]2)CC1=O (configuration not stated) | 250 µM | 260 µM |
| COC(=O)NCCc1ccccc1OC | 98.5 µM | > 501 µM |
| Cc1cc(C)c(C)c(OCC(=O)N2CCN(C)CC2)c1 | 111 µM | 129 µM |
| CCn1ccc(C(=O)N(C)Cc2cccnc2OC)n1 | > 501 µM | 212 µM |
| CC(O)CNCCNCc1ccc(-c2ccccc2)o1 (configuration not stated) | 275 µM | 113 µM |
| O=C(NCC1CCCO1)c1cc(-c2cccs2)on1 (configuration not stated) | 38.3 µM | 54.8 µM |
| CN(C)C(=O)c1csc(N2CCCCC2)n1 | 46.6 µM | 58.7 µM |
| Cc1nn(CCCN)c(C)c1Br | 266 µM | > 501 µM |
| NCc1nc(-c2cccc(C(F)(F)F)c2)no1 | 262 µM | 130 µM |
| Cn1nccc1C(=O)N1CCC(Oc2ccccc2)C1 (configuration not stated) | 232 µM | 161 µM |
| CCn1nnc(NCc2ccccc2)n1 | 229 µM | > 501 µM |
| O=C(Nc1cccc(Cl)c1)C1CCCN1 (configuration not stated) | 147 µM | > 501 µM |
| CCOc1ccc(CNC(=O)CCn2cccn2)cc1 | 148 µM | > 501 µM |
| NC(=O)CSc1nnc(-c2cc(Br)ccc2O)[nH]1 | 210 µM | 247 µM |
| NC(=O)c1ccccc1NC(=O)CSc1ccccn1 | 116 µM | > 501 µM |
| Cc1cc(CN)on1 | 293 µM | 293 µM |
| CCCNc1cc(-n2cccn2)ncn1 | 58.4 µM | 280 µM |

| SMILES | IC50 [1] | IC50 [2] |
| --- | --- | --- |
| CCCNC(=O)CSCc1nc(-c2ccccc2)no1 | 239 µM | 437 µM |
| CCn1c(SCC(N)=O)nnc1-c1cc(Br)cs1 | 254 µM | 249 µM |
| COC(=O)CS(=O)(=O)c1ccc(C)c(Cl)c1 | 249 µM | > 501 µM |
| O=C(NCCCn1ncc2ccccc21)C1CC1 | 150 µM | 147 µM |
| Cc1ccc2c(c1)OC(C)CN2C(=O)c1ccccn1 (configuration not stated) | > 501 µM | > 501 µM |
| OCCNCCNCc1ccc(-c2ccccc2)o1 | 159 µM | 29.2 µM |
| CCC[C@H]1CN(S(=O)(=O)c2ccnn2CCC)C[C@@H]1N | 283 µM | > 501 µM |
| Cn1cc(CNC(=O)c2cccc(I)c2)cn1 | 166 µM | 70.2 µM |
| COc1ccc(Nc2ncccc2S(N)(=O)=O)cc1 | > 501 µM | > 501 µM |
| C1CC(COCCc2noc(C3CNC3)n2)CCO1 | 337 µM | 279 µM |
| CCn1ccc(C(=O)NCc2ccco2)n1 | 232 µM | > 501 µM |
| c1ccc2[nH]c(NCC3CCCO3)nc2c1 (configuration not stated) | > 501 µM | 166 µM |
| Cc1ccc(CNCCOc2ccccn2)o1 | > 501 µM | 98.7 µM |
| Cc1ccc(C(=O)N2CCC3(CCCCO3)CC2)cn1 | 258 µM | > 501 µM |
| COc1cc(C(=O)CCN(C)C)cc(OC)c1OC | 196 µM | 338 µM |
| NC(c1cncc(Br)c1)C1CC1 (configuration not stated) | > 501 µM | > 501 µM |
| COCCNC(=O)c1cc2cc(C)ccc2n1C | 173 µM | > 501 µM |
| CCN1CCN(C(=O)c2ccc(C)c(C)c2)CC1 | > 501 µM | > 501 µM |
| Cn1c(CO)nnc1SCC=Cc1ccccc1 | 240 µM | 289 µM |
